# Experimental data: patent US20130109698A1, “Small Molecule Inhibitors of Functions of the HIV-1 Matrix Protein” (priority 2010, published 2013)
# Assays:
# [1] = system: luciferase-reporter HIV-1 NL4-3 pseudotyped with HxBc2 envelope produced in 293T cells; test: microbe, parasite or virus in culture
# HIV-1 IIIB = test: Infection of Sup-T1 cells by HIV-1 IIIB, p24 ELISA; conditions: 50 μM, three days
Compound,IC50 [1] [µM],"HIV-1 replication (p24), in words (HIV-1 IIIB)"
"COc1ccc(NC(C)=O)cc1NC(=O)Cn1cnc2scc(-c3ccc(C)s3)c2c1=O [CMPD-10, N-(5-acetamido-2-methoxyphenyl)-2-(5-(5-methylthiophen-2-yl)-4-oxothieno[2,3-d]pyrimidin-3(4H)-yl)acetamide]",31,"inhibited HIV-1 replication, albeit to a lesser extent"
"O=C1NC(c2ccccc2)(c2ccccc2)C(=O)N1CN1CCC(c2nc3ccccc3o2)CC1 [CMPD-13, 3-((4-(benzo[d]oxazol-2-yl)piperidin-1-yl)methyl)-5,5-diphenylimidazolidine-2,4-dione]",–,no effect
"O=C(NCc1ccc(CN2CCCC2)cc1)c1ccc(C2SCCCS2)cc1 [CMPD-19, 4-(1,3-dithian-2-yl)-N-(4-(pyrrolidin-1-ylmethyl)benzyl)benzamide]",26,inhibited
